The values below come from patent US8987193B2, “Nisin derivatives and the use thereof” (University College Cork—National University of Ireland, Cork, priority 2008, dated 2015).

In one assay the test system is Staph. aureus DPC5245. Nature of the assay: Deferred antagonism assay. Type of assay: cell-based. The conditions noted are these: producing strain; diameter of zone minus 5 mm; average of duplicates; St. aureus DPC5245. As to the method: (§1) Deferred antagonism assays were performed by replicating strains on GM17 or GM17 x-gal agar plates and allowing them to grow overnight before overlaying with either GM17/BHI/TS/MH agar (0.75% w/v agar) seeded with the appropriate indicator strain. Zone size was calculated as the diameter of the zone of clearing minus the diameter of bacterial growth (5 mm) For higher throughput screening of N20PXX, XM21VX, XXK22T and XXX banks deferred antagonism assays were performed by replicating strains using a 96 pin replicator (Boekel) or spotting 5 μl of a fresh overnight culture on GM17 agar plates and allowing them to grow overnight. […] Additional sets of indicators were employed to further assess/reassess the bioactivity of a number of strains. […] For well-diffusion assays molten agar was cooled to 48° C. and seeded with the appropriate indicator strain. The inoculated medium was rapidly transferred into sterile Petri plates in 50 ml volumes, allowed to solidify and dried. Wells (4.6 mm in diameter) were then made in the seeded plates. Purified nisin and mutant nisins were resuspended in 0.005% acetic acid, serially diluted, 50 μl volumes were dispensed into the aforementioned wells and the plates incubated at 37° C. overnight. Bioactivity was expressed as arbitrary units/ml (AU/ml) and calculated as the reciprocal of the highest dilution that gave a definite zone multiplied by the conversion factor (i.e. 20 when 50 μl was used) (Ryan et al., 1996).
(§2) As a consequence of the enhanced activities of K22T and K22S, a more in-depth investigation of this region was carried out. Saturation mutagenesis was undertaken to create a bank of nisin A hinge derivatives containing the vast majority of possible amino acid substitutions for each position. Although pPTPL was used successfully for random mutagenesis, its relatively large size of approx 10.5 kb was considered unsuitable for the complete plasmid PCR amplification approach utilized for saturation mutagenesis. A smaller (approx 6 kb) E. coli-L. lactis shuttle vector pCI372 was considered to be potentially more useful. Its suitability with respect to the in trans expression of nisA was confirmed by the ability of pDFO5 to restore the nisin positive phenotype. Saturation mutagenesis was performed on each codon using pDF05 and oligonucleotides (Table 5) that replace the specific codon with a NNK triplet, potentially encoding all 20 standard amino acids. Following complete plasmid amplification and introduction into the intermediate Top10 host, sequence analysis of a pooled bank of pDF05 derivatives confirmed randomization. Introduction of these variants into L. lactis NZ9800 allowed the expression of mutant nisin A peptides for further analysis. […] 46 residue conversions were isolated. All strains, regardless of bioactivity, were assessed with a view to comprehensively assessing the consequences of each individual hinge alteration.
(§3) Values are an average of duplicate experiments and represent zone size (diameter of zone minus diameter of bacterial growth (i.e. 5 mm) relative to that of the NZ9800 pCI372nisA control. X=Mutants not identified.

Assay [1] concerns Strep. agalactiae ATCC13813. Nature of the assay: Deferred antagonism assay. Type of assay: cell-based. The conditions noted are these: producing strain, diameter of zone minus 5 mm, average of duplicates. As to the method:
as §1, §2, §3

The subject of assay [2] is Staph. aureus ST528 (MRSA). Nature of the assay: Deferred antagonism assay. The format is cell-based. As to conditions: producing strain, diameter of zone minus diameter of bacterial growth (5 mm), average of duplicates. As to the method: as §1, §2, §3
For the next assay, the system named is indicator strains. Nature of the assay: Deferred antagonism assays, various indicator strains (summary). Type of assay: cell-based. As to conditions: for bioactivity of the producing strain, in words: in general / against the strains tested. The gist of the method: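 Producer strains were replicated on GM17 or GM17 x-gal agar, grown overnight, then overlaid with GM17, BHI, TS or MH soft agar (0.75% w/v) seeded with the indicator strain. Zone size was taken as the clearing diameter minus the diameter of bacterial growth (5 mm).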

Another assay has as its system L. monocytogenes CBC3. Nature of the assay: Deferred antagonism assay. The arrangement: key: + = Enhanced bioactivity relative to control; − = Bioactivity equal to or less than control; NA = no activity evident. The format is cell-based, Listeria monocytogenes. The conditions noted are these: producing strain; L. mono CBC3. The essentials: (§4)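 L. lactis NZ9800 strains expressing nisin A hinge variants were replicated or spotted on GM17 agar, grown overnight, then overlaid with 0.75% w/v agar seeded with indicator. Zone size is the clearing diameter minus 5 mm colony growth.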

For the next assay, the system named is L. monocytogenes CBC2. Nature of the assay: Deferred antagonism assay. The arrangement: key: + = Enhanced bioactivity relative to control; − = Bioactivity equal to or less than control; NA = no activity evident. As to conditions: producing strain; L. mono CBC2. The format is cell-based, Listeria monocytogenes. The essentials: as §4
The subject of the next assay is L. monocytogenes CBC1. Nature of the assay: Deferred antagonism assay. The format is cell-based, Listeria monocytogenes. The arrangement: key: + = Enhanced bioactivity relative to control; − = Bioactivity equal to or less than control; NA = no activity evident. As to conditions: producing strain; L. mono CBC1. The essentials:
as §4

The test system of the next assay is L. plantarum CBC6. Nature of the assay: Deferred antagonism assay. The format is cell-based, Lactobacillus plantarum. As to conditions: producing strain. On the set-up: key: + = Enhanced bioactivity relative to control; − = Bioactivity equal to or less than control; NA = no activity evident. The essentials:
as §4

The subject of another assay is L. lactis CBC8. Nature of the assay: Deferred antagonism assay. Type of assay: cell-based. The arrangement: key: + = Enhanced bioactivity relative to control; − = Bioactivity equal to or less than control; NA = no activity evident. The conditions noted are these: producing strain. The essentials:
as §4

The next assay relates to S. aureus CBC4. Nature of the assay: Deferred antagonism assay. Type of assay: cell-based. On the set-up: key: + = Enhanced bioactivity relative to control; − = Bioactivity equal to or less than control; NA = no activity evident. The conditions noted are these: producing strain. The essentials: as §4
Another assay concerns L. lactis CBC7. Nature of the assay: Deferred antagonism assay. The format is cell-based. The arrangement: key: + = Enhanced bioactivity relative to control; − = Bioactivity equal to or less than control; NA = no activity evident. As to conditions: producing strain. The essentials: as §4
The subject of a further assay is C. sporogenes CBC5. Nature of the assay: Deferred antagonism assay. The format is cell-based, Clostridium sporogenes. On the set-up: key: + = Enhanced bioactivity relative to control; − = Bioactivity equal to or less than control; NA = no activity evident. The conditions noted are these: producing strain.

“Also recorded” adds a separate entry of the source. Ends that are not written are not given here.

On to “K22E: nisin A derivative, hinge substitution K22E; no detectable production (ITSISLCTPGCKTGALMGCNMETATCHCSIHVSK; cysteine pairing not given here; also: lantibiotic nisin-A; UniProt P13068 24-57, looked up, variant K22E)”, for which the “zone size relative to that of the NZ9800 pCI372nisA control” value (“zone size relative to that” for short) (with Staph. aureus DPC5245; in assay [1]; in assay [2]) was 0% in each case.

“K22R: nisin A derivative, hinge substitution K22R (ITSISLCTPGCKTGALMGCNMRTATCHCSIHVSK; cysteine pairing not given here; also: lantibiotic nisin-A; UniProt P13068 24-57, looked up, variant K22R)”: the “zone size relative to that” value in the assay with Staph. aureus DPC5245 was found to be 45%; in [1], 56%; in assay [2], 42.5%. Further, the “bioactivity of the producing strain, in words” value (“bioactivity … in words” for short) in the assay on indicator strains is “greatly reduced bioactivities”.

Regarding “M21Q: nisin A derivative, hinge substitution M21Q (ITSISLCTPGCKTGALMGCNQKTATCHCSIHVSK; cysteine pairing not given here; also: lantibiotic nisin-A; UniProt P13068 24-57, looked up, variant M21Q)”, the “zone size relative to that” value amounted to 94% in the assay on Staph. aureus DPC5245, 98% in assay [1] and 92% in assay [2]. The “bioactivity … in words” value with indicator strains is “slightly diminished bioactivity”.

Take “M21R: nisin A derivative, hinge substitution M21R (ITSISLCTPGCKTGALMGCNRKTATCHCSIHVSK; cysteine pairing not given here; also: lantibiotic nisin-A; UniProt P13068 24-57, looked up, variant M21R)”: the “zone size relative to that” value with Staph. aureus DPC5245 is on record as 61%; in [1] it was 66%; in assay [2] it was 56.5%. Further, in the assay on indicator strains, the “bioactivity … in words” value is recorded as “greatly reduced bioactivities”.

As for “M21T: nisin A derivative, hinge substitution M21T (ITSISLCTPGCKTGALMGCNTKTATCHCSIHVSK; cysteine pairing not given here; also: lantibiotic nisin-A; UniProt P13068 24-57, looked up, variant M21T)”, the “zone size relative to that” value in the assay on Staph. aureus DPC5245 turned out to be 112%; in assay [1] it was 110%; in [2], 110%.

For the substance “N20D: nisin A derivative, hinge substitution N20D (ITSISLCTPGCKTGALMGCDMKTATCHCSIHVSK; cysteine pairing not given here; also: lantibiotic nisin-A; UniProt P13068 24-57, looked up, variant N20D)”, the “zone size relative to that” value (with Staph. aureus DPC5245; in [1]; in [2]) was 0% throughout. Further, the “bioactivity … in words” value with indicator strains is on record as “devoid of bioactivity”.

For “N20I: nisin A derivative, hinge substitution N20I (ITSISLCTPGCKTGALMGCIMKTATCHCSIHVSK; cysteine pairing not given here; also: lantibiotic nisin-A; UniProt P13068 24-57, looked up, variant N20I)”, the “Bioactivity relative to control” value in the assay with L. monocytogenes CBC3, with L. monocytogenes CBC2, with L. monocytogenes CBC1, in the assay with L. plantarum CBC6, in the assay with L. lactis CBC8 and in the assay on S. aureus CBC4 was “−” each time. The “Bioactivity relative to control” value in the assay on L. lactis CBC7 and with C. sporogenes CBC5 was “−” in each case. The entries for the “zone size relative to that” value (in the assay with Staph. aureus DPC5245; in assay [1]) were 49% and 61%, respectively. Besides, in the assay on indicator strains, the “bioactivity … in words” value was “retention of relatively high levels of bioactivity”.

In the case of “N20Y: nisin A derivative, hinge substitution N20Y (ITSISLCTPGCKTGALMGCYMKTATCHCSIHVSK; cysteine pairing not given here; also: lantibiotic nisin-A; UniProt P13068 24-57, looked up, variant N20Y)”, the “zone size relative to that” value stood at 55% in the assay on Staph. aureus DPC5245, 30.5% in assay [1] and 33.5% in [2].

Regarding “NisinA M21Y (ITSISLCTPGCKTGALMGCNYKTATCHCSIHVSK; not fully specified; also: lantibiotic: lanthionine rings and dehydro residues not placed; UniProt P13068 24-57, looked up, variant M21Y) [nisin A derivative, hinge substitution M21Y]”, the “Bioactivity relative to control” value is listed as “+” with L. monocytogenes CBC3; “+” with L. monocytogenes CBC2; “−” with L. monocytogenes CBC1; “−” in the assay on L. plantarum CBC6; “−” in the assay with L. lactis CBC8; “+” in the assay with S. aureus CBC4. Besides, the “Bioactivity relative to control” value in the assay with L. lactis CBC7 and in the assay on C. sporogenes CBC5 was “+” each time. Further, the “zone size relative to that” value in assay [1] amounted to 65%. Further, the “Strain(s) against which the derivative (producing strain) displays enhanced bioactivity” value with indicator strains (relative to nisin A-producing control, value = strains listed) was “L. monocytogenes CBC2 and CBC3 as well as Staph. aureus CBC4, C. sporogenes CBC5 and L. lactis CBC7; also recorded: L. monocytogenes CBC2, CBC3, S. aureus CBC4, C. sporogenes CBC5 and L. lactis 7”.
